Results from PubChem BioAssay (NCI).
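Grown in 96-well plates, cells were treated for 48 hours with each compound at five concentrations. Insufficient inhibition: endpoint recorded as highest concentration tested. GI50 is the concentration that inhibits growth by half. The concentration for full growth arrest is given as TGI.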

Legend:
Experiment in all cases: NCI anticancer screen, dose series, 48 h
A549 NSCLC = system: A549 NSCLC
EKVX NSCLC = system: EKVX NSCLC
A498 renal = system: A498 renal
SNB-19 CNS = system: SNB-19 CNS
OVCAR-5 ovarian = system: OVCAR-5 ovarian
K-562 leukemia = system: K-562 leukemia
SK-OV-3 ovarian = system: SK-OV-3 ovarian
RPMI-8226 leukemia = system: RPMI-8226 leukemia
MDA-MB-435 = system: MDA-MB-435
UO-31 renal = system: UO-31 renal
MDA-MB-231 breast = system: MDA-MB-231 breast
SK-MEL-5 melanoma = system: SK-MEL-5 melanoma
HL-60(TB) leukemia = system: HL-60(TB) leukemia
SN12C renal = system: SN12C renal
CCRF-CEM leukemia = system: CCRF-CEM leukemia
HT29 colon = system: HT29 colon
M14 melanoma = system: M14 melanoma
CAKI-1 renal = system: CAKI-1 renal
U251 CNS = system: U251 CNS
SK-MEL-28 melanoma = system: SK-MEL-28 melanoma
NCI-H23 lung = system: NCI-H23 lung
HS 578T breast = system: HS 578T breast
OVCAR-8 ovarian = system: OVCAR-8 ovarian
COLO 205 colon = system: COLO 205 colon
PC-3 prostate = system: PC-3 prostate
T-47D breast = system: T-47D breast
LOX IMVI melanoma = system: LOX IMVI melanoma
OVCAR-4 ovarian = system: OVCAR-4 ovarian
MOLT-4 leukemia = system: MOLT-4 leukemia

Compound: O=[N+]([O-])c1ccc(Sc2ccncn2)c([N+](=O)[O-])c1
- GI50 (A549 NSCLC): 4.3 µM
- TGI (A549 NSCLC): 16.4 µM
- GI50 (EKVX NSCLC): 2.39 µM
- TGI (EKVX NSCLC): 8.3 µM
- GI50 (A498 renal): 8.71 µM
- TGI (A498 renal): 22.7 µM
- GI50 (SNB-19 CNS): 10.1 µM
- TGI (SNB-19 CNS): 23.7 µM
- GI50 (OVCAR-5 ovarian): 5.25 µM
- TGI (OVCAR-5 ovarian): 17.7 µM
- GI50 (K-562 leukemia): 0.277 µM
- TGI (K-562 leukemia): 1.95 µM
- GI50 (SK-OV-3 ovarian): 8.64 µM
- TGI (SK-OV-3 ovarian): 21.7 µM
- GI50 (RPMI-8226 leukemia): 2.59 µM
- TGI (RPMI-8226 leukemia): 8.16 µM
- GI50 (MDA-MB-435): 2.5 µM
- TGI (MDA-MB-435): 8.56 µM
- GI50 (UO-31 renal): 1.08 µM
- TGI (UO-31 renal): 2.84 µM
- GI50 (MDA-MB-231 breast): 7.79 µM
- TGI (MDA-MB-231 breast): 20.8 µM
- GI50 (SK-MEL-5 melanoma): 3.27 µM
- TGI (SK-MEL-5 melanoma): 11.7 µM
- GI50 (HL-60(TB) leukemia): 0.174 µM
- TGI (HL-60(TB) leukemia): 0.677 µM
- GI50 (SN12C renal): 3.89 µM
- TGI (SN12C renal): 15.1 µM
- GI50 (CCRF-CEM leukemia): 0.504 µM
- TGI (CCRF-CEM leukemia): 6.13 µM
- GI50 (HT29 colon): 1.64 µM
- TGI (HT29 colon): 3.81 µM
- GI50 (M14 melanoma): 1.64 µM
- TGI (M14 melanoma): 3.3 µM
- GI50 (CAKI-1 renal): 0.602 µM
- TGI (CAKI-1 renal): 1.93 µM
- GI50 (U251 CNS): 5.47 µM
- TGI (U251 CNS): 17.8 µM
- GI50 (SK-MEL-28 melanoma): 4.31 µM
- TGI (SK-MEL-28 melanoma): 9.44 µM
- GI50 (NCI-H23 lung): 2.93 µM
- TGI (NCI-H23 lung): 9.73 µM
- GI50 (HS 578T breast): 3.06 µM
- TGI (HS 578T breast): 24.2 µM
- GI50 (OVCAR-8 ovarian): 3.47 µM
- TGI (OVCAR-8 ovarian): 13.3 µM
- GI50 (COLO 205 colon): 2.55 µM
- TGI (COLO 205 colon): 6.5 µM
- GI50 (PC-3 prostate): 3.98 µM
- TGI (PC-3 prostate): 15.7 µM
- GI50 (T-47D breast): 1.94 µM
- TGI (T-47D breast): 4.41 µM
- GI50 (LOX IMVI melanoma): 1.97 µM
- TGI (LOX IMVI melanoma): 5.21 µM
- GI50 (OVCAR-4 ovarian): 2.78 µM
- TGI (OVCAR-4 ovarian): 11.3 µM
- GI50 (MOLT-4 leukemia): 0.939 µM
- TGI (MOLT-4 leukemia): 4.24 µM
